target: Glycogen synthase kinase-3 beta (Homo sapiens, UniProt P49841)
Sequence (P49841 whole entry, looked up): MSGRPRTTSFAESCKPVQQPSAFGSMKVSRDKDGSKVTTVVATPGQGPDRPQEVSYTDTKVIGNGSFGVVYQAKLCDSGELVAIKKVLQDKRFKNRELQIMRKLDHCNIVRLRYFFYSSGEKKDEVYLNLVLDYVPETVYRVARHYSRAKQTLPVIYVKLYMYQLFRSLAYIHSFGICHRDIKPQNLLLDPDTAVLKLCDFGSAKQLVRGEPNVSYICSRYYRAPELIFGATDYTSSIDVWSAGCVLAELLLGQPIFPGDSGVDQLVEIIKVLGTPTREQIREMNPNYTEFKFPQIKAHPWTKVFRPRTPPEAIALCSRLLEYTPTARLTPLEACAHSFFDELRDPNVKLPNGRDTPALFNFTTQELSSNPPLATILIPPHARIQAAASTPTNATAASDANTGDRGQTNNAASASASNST

| SMILES | ΔTm |
| --- | --- |
| COc1cccc(-c2cc(=O)c3ccccc3o2)c1N | 0.1 °C |
| CC(C)n1cnc2/c(=N/c3cccc(Cl)c3)nc(NCCO)[nH]c21 | 0.8 °C |
| COc1ccc2c(c[n+](C)c3c4cc5c(cc4ccc23)OCO5)c1OC [CHELERYTHRINE CHLORIDE] | -1.5 °C |

target: Serine/threonine-protein kinase PAK 5 (Homo sapiens) (UniProt Q9P286)
Sequence (Q9P286 whole entry, looked up): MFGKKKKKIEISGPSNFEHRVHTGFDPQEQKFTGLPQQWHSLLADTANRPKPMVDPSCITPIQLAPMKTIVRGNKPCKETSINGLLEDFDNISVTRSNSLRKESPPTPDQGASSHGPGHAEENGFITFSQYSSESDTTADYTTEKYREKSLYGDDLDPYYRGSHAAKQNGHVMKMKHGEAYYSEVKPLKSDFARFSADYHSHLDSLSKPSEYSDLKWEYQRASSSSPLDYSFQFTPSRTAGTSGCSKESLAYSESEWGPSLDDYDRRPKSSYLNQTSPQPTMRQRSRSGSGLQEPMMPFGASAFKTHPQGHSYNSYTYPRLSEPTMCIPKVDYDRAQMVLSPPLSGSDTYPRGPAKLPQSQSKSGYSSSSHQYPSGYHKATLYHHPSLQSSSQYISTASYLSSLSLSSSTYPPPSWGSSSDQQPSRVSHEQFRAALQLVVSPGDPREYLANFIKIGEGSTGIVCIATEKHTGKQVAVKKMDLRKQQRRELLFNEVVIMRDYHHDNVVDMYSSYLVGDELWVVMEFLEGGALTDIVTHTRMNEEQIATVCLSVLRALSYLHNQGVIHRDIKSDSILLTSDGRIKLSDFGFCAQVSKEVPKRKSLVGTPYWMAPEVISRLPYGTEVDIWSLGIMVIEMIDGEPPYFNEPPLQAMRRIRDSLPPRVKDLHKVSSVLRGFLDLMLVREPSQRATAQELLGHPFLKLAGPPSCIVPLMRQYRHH

| SMILES | ΔTm |
| --- | --- |
| COc1cccc(-c2cc(=O)c3ccccc3o2)c1N | -0.2 °C |
| CC(C)n1cnc2/c(=N/c3cccc(Cl)c3)nc(NCCO)[nH]c21 | 1.6 °C |
| COc1ccc2c(c[n+](C)c3c4cc5c(cc4ccc23)OCO5)c1OC [CHELERYTHRINE CHLORIDE] | -1.7 °C |

target: Ribosomal protein S6 kinase alpha-3 (Homo sapiens) (UniProt P51812)
Sequence (P51812 whole entry): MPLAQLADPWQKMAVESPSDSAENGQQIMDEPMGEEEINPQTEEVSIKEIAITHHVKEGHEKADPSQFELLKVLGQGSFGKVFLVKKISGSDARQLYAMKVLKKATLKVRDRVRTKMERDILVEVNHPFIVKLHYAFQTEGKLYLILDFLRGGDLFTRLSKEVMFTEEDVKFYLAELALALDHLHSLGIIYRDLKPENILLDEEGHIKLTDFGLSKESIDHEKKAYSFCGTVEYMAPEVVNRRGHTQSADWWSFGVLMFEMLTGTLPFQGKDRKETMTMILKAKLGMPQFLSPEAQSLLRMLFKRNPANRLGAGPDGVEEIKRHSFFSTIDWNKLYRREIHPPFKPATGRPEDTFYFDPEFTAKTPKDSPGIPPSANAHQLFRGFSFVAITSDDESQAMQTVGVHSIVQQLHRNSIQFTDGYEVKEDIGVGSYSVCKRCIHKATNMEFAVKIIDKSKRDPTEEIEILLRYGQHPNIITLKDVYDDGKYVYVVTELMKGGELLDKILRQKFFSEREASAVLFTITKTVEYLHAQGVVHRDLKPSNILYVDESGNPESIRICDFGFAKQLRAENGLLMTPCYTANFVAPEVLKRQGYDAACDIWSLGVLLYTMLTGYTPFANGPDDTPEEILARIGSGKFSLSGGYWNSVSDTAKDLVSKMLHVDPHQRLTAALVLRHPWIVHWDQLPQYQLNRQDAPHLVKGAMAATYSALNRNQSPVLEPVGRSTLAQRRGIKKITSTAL

| SMILES | ΔTm |
| --- | --- |
| COc1cccc(-c2cc(=O)c3ccccc3o2)c1N | -0.2 °C |
| CC(C)n1cnc2/c(=N/c3cccc(Cl)c3)nc(NCCO)[nH]c21 | 2.1 °C |
| COc1ccc2c(c[n+](C)c3c4cc5c(cc4ccc23)OCO5)c1OC [CHELERYTHRINE CHLORIDE] | -0.3 °C |

target: Dual specificity protein kinase CLK1 (Homo sapiens) (UniProt P49759)
Sequence (P49759 whole entry, looked up): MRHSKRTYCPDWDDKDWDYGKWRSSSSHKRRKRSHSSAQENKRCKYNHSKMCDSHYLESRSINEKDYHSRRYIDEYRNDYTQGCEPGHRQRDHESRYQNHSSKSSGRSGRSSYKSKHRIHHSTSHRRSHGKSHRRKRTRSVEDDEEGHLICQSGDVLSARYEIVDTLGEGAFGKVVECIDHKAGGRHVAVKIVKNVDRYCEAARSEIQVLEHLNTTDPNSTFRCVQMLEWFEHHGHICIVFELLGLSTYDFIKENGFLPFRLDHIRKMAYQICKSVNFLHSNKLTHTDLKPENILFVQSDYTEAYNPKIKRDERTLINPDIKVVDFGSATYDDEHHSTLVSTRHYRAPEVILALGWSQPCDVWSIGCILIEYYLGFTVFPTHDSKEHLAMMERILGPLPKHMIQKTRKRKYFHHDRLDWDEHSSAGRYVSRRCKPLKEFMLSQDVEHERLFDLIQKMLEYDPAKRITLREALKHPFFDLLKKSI

| SMILES | ΔTm |
| --- | --- |
| COc1cccc(-c2cc(=O)c3ccccc3o2)c1N | 0.2 °C |
| CC(C)n1cnc2/c(=N/c3cccc(Cl)c3)nc(NCCO)[nH]c21 | 5.1 °C |
| COc1ccc2c(c[n+](C)c3c4cc5c(cc4ccc23)OCO5)c1OC [CHELERYTHRINE CHLORIDE] | -4.4 °C |

target: Calcium/calmodulin-dependent protein kinase type 1D (Homo sapiens) (UniProt Q8IU85)
Sequence (Q8IU85 whole entry, looked up): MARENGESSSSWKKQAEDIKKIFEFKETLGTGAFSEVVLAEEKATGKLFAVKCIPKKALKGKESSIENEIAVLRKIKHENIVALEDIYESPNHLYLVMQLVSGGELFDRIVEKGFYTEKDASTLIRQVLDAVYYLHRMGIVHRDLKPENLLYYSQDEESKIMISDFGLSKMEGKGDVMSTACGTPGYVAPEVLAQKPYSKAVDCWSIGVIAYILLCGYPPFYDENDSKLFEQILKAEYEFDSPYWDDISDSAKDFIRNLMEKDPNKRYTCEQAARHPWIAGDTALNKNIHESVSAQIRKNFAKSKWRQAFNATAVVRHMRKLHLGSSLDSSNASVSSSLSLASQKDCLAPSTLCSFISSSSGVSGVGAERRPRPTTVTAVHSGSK

| SMILES | ΔTm |
| --- | --- |
| COc1cccc(-c2cc(=O)c3ccccc3o2)c1N | -0.1 °C |
| CC(C)n1cnc2/c(=N/c3cccc(Cl)c3)nc(NCCO)[nH]c21 | 0.7 °C |
| COc1ccc2c(c[n+](C)c3c4cc5c(cc4ccc23)OCO5)c1OC [CHELERYTHRINE CHLORIDE] | -5.3 °C |

target: Mitogen-activated protein kinase 11 (Homo sapiens, UniProt Q15759)
Sequence (Q15759 whole entry): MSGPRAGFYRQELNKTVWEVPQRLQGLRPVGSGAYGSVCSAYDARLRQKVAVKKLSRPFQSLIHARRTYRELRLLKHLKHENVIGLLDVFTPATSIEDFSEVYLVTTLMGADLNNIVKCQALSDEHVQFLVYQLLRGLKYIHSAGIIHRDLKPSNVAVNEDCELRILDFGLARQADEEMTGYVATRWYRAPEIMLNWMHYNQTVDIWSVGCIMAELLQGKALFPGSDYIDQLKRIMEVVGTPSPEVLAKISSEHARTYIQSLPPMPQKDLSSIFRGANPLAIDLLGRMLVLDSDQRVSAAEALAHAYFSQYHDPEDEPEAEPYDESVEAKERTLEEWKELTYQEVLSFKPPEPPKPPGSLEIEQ

| SMILES | ΔTm |
| --- | --- |
| COc1cccc(-c2cc(=O)c3ccccc3o2)c1N | 0.2 °C |
| CC(C)n1cnc2/c(=N/c3cccc(Cl)c3)nc(NCCO)[nH]c21 | -0.1 °C |
| COc1ccc2c(c[n+](C)c3c4cc5c(cc4ccc23)OCO5)c1OC [CHELERYTHRINE CHLORIDE] | 0.6 °C |

target: Serine/threonine-protein kinase 25 (Homo sapiens) (UniProt O00506)
Sequence (O00506 whole entry, looked up): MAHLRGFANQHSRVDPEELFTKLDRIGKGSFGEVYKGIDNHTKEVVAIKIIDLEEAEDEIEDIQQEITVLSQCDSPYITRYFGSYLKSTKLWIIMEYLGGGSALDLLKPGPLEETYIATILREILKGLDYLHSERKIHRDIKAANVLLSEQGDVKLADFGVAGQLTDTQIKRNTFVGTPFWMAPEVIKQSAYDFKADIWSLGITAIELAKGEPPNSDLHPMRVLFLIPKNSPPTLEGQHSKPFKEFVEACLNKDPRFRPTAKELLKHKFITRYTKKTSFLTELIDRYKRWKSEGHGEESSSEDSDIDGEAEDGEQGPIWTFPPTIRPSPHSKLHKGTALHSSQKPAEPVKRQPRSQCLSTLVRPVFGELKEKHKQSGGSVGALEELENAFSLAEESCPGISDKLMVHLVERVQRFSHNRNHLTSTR

| SMILES | ΔTm |
| --- | --- |
| COc1cccc(-c2cc(=O)c3ccccc3o2)c1N | 0.5 °C |
| CC(C)n1cnc2/c(=N/c3cccc(Cl)c3)nc(NCCO)[nH]c21 | 2.9 °C |
| COc1ccc2c(c[n+](C)c3c4cc5c(cc4ccc23)OCO5)c1OC [CHELERYTHRINE CHLORIDE] | -0.3 °C |

target: Cyclin-dependent kinase-like 1 (Homo sapiens) (UniProt Q00532)
Sequence (Q00532 whole entry): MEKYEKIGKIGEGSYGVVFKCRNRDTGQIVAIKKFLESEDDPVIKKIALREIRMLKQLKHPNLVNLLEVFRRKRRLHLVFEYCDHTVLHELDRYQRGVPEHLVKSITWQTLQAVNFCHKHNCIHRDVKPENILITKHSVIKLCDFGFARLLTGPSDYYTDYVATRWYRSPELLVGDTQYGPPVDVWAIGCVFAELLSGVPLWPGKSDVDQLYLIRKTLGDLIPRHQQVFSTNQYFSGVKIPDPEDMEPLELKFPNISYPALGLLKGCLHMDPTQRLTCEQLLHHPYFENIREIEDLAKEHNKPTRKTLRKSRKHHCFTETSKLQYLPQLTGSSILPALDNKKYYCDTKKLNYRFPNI

| SMILES | ΔTm |
| --- | --- |
| COc1cccc(-c2cc(=O)c3ccccc3o2)c1N | 0 °C |
| CC(C)n1cnc2/c(=N/c3cccc(Cl)c3)nc(NCCO)[nH]c21 | -0.1 °C |
| COc1ccc2c(c[n+](C)c3c4cc5c(cc4ccc23)OCO5)c1OC [CHELERYTHRINE CHLORIDE] | -3.5 °C |

target: Cyclin-dependent kinase 6 (Homo sapiens) (UniProt Q00534)

| SMILES | ΔTm |
| --- | --- |
| COc1cccc(-c2cc(=O)c3ccccc3o2)c1N | 0.1 °C |
| CC(C)n1cnc2/c(=N/c3cccc(Cl)c3)nc(NCCO)[nH]c21 | 0 °C |
| COc1ccc2c(c[n+](C)c3c4cc5c(cc4ccc23)OCO5)c1OC [CHELERYTHRINE CHLORIDE] | -1 °C |

target: T1, Serine/threonine-protein kinase PLK4 (Homo sapiens) (UniProt O00444)
T1 sequence (whole entry): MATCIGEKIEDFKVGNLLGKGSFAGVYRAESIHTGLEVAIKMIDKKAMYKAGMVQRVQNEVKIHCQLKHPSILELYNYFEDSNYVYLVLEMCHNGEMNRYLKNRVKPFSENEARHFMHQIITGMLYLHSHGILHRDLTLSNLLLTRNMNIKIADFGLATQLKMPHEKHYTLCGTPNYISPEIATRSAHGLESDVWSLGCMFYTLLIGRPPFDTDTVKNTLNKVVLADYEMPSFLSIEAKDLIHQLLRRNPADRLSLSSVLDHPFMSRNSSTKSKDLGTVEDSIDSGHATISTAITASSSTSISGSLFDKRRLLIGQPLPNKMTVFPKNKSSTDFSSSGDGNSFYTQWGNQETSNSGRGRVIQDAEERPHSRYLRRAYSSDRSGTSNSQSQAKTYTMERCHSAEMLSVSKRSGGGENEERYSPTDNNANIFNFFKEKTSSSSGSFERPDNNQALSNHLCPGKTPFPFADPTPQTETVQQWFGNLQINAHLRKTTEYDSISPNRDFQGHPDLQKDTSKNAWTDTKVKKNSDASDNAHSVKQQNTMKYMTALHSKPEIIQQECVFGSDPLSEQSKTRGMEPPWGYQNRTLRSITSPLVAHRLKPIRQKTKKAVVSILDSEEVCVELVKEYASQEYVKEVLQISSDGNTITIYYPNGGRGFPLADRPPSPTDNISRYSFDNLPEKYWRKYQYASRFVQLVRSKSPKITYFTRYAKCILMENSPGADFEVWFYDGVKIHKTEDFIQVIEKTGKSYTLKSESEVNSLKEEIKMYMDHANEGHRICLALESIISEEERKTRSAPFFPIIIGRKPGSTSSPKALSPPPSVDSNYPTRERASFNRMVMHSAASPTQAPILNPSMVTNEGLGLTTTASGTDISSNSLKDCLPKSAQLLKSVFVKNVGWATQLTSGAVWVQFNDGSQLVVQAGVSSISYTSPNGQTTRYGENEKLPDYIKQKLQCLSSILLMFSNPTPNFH

| SMILES | ΔTm |
| --- | --- |
| COc1cccc(-c2cc(=O)c3ccccc3o2)c1N | 0.2 °C |
| CC(C)n1cnc2/c(=N/c3cccc(Cl)c3)nc(NCCO)[nH]c21 | 1.3 °C |
| COc1ccc2c(c[n+](C)c3c4cc5c(cc4ccc23)OCO5)c1OC [CHELERYTHRINE CHLORIDE] | -3.1 °C |

target: Serine/threonine-protein kinase 26 (Homo sapiens) (UniProt Q9P289)

| SMILES | ΔTm |
| --- | --- |
| COc1cccc(-c2cc(=O)c3ccccc3o2)c1N | -0.3 °C |
| CC(C)n1cnc2/c(=N/c3cccc(Cl)c3)nc(NCCO)[nH]c21 | 0.9 °C |
| COc1ccc2c(c[n+](C)c3c4cc5c(cc4ccc23)OCO5)c1OC [CHELERYTHRINE CHLORIDE] | -4.2 °C |

target: Serine/threonine-protein kinase pim-1 (Homo sapiens) (UniProt P11309)
Sequence (P11309 whole entry, looked up): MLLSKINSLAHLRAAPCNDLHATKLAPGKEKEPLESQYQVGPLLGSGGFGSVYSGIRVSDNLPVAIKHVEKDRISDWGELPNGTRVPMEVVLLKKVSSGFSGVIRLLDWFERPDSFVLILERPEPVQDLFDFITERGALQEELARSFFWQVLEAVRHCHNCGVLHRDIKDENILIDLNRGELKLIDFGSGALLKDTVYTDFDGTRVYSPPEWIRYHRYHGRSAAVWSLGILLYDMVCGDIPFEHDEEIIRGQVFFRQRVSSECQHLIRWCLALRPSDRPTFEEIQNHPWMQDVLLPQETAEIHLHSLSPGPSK

| SMILES | ΔTm |
| --- | --- |
| COc1cccc(-c2cc(=O)c3ccccc3o2)c1N | 0.9 °C |
| CC(C)n1cnc2/c(=N/c3cccc(Cl)c3)nc(NCCO)[nH]c21 | -0.3 °C |
| COc1ccc2c(c[n+](C)c3c4cc5c(cc4ccc23)OCO5)c1OC [CHELERYTHRINE CHLORIDE] | -4.4 °C |

target: T2, Serine/threonine-protein kinase Nek2 (Homo sapiens) (UniProt P51955)
T2 sequence (whole entry): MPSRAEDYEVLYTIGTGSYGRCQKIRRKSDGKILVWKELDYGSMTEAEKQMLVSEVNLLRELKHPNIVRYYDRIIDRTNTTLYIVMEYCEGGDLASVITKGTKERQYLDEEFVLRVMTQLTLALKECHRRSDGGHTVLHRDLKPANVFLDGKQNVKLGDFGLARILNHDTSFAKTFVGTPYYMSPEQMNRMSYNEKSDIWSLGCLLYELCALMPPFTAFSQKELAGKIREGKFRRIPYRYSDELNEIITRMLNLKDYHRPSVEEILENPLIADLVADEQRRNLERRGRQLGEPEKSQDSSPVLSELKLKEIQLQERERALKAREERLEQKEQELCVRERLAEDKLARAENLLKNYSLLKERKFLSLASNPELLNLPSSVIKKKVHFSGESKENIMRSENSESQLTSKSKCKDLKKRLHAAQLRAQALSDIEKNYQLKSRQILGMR

| SMILES | ΔTm |
| --- | --- |
| COc1cccc(-c2cc(=O)c3ccccc3o2)c1N | -0.2 °C |
| CC(C)n1cnc2/c(=N/c3cccc(Cl)c3)nc(NCCO)[nH]c21 | 1.3 °C |
| COc1ccc2c(c[n+](C)c3c4cc5c(cc4ccc23)OCO5)c1OC [CHELERYTHRINE CHLORIDE] | -1.2 °C |

target: T3, 3-phosphoinositide-dependent protein kinase 1 (Homo sapiens) (UniProt O15530)
T3 sequence (whole entry): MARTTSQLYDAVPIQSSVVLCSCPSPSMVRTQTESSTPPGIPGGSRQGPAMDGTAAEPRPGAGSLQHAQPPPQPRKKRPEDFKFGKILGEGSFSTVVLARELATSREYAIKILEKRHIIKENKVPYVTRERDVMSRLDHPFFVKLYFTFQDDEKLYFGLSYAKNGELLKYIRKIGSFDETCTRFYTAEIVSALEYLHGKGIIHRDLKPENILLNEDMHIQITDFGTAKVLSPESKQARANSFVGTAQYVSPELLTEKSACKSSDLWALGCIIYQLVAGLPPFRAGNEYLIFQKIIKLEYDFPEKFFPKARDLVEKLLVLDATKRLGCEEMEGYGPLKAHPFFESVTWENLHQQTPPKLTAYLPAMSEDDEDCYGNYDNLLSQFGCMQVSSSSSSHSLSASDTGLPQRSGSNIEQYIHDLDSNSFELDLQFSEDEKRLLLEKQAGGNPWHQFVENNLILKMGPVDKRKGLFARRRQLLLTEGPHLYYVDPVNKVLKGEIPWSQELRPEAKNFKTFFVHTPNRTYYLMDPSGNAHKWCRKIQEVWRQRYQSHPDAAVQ

| SMILES | ΔTm |
| --- | --- |
| COc1cccc(-c2cc(=O)c3ccccc3o2)c1N | -0.2 °C |
| CC(C)n1cnc2/c(=N/c3cccc(Cl)c3)nc(NCCO)[nH]c21 | 0 °C |
| COc1ccc2c(c[n+](C)c3c4cc5c(cc4ccc23)OCO5)c1OC [CHELERYTHRINE CHLORIDE] | -0.7 °C |

target: STE20-like serine/threonine-protein kinase (Homo sapiens) (UniProt Q9H2G2)

| SMILES | ΔTm |
| --- | --- |
| COc1cccc(-c2cc(=O)c3ccccc3o2)c1N | -0.1 °C |
| CC(C)n1cnc2/c(=N/c3cccc(Cl)c3)nc(NCCO)[nH]c21 | 1.6 °C |
| COc1ccc2c(c[n+](C)c3c4cc5c(cc4ccc23)OCO5)c1OC [CHELERYTHRINE CHLORIDE] | -2.4 °C |

target: Serine/threonine-protein kinase Chk2 (Homo sapiens, UniProt O96017)
Sequence (O96017 whole entry): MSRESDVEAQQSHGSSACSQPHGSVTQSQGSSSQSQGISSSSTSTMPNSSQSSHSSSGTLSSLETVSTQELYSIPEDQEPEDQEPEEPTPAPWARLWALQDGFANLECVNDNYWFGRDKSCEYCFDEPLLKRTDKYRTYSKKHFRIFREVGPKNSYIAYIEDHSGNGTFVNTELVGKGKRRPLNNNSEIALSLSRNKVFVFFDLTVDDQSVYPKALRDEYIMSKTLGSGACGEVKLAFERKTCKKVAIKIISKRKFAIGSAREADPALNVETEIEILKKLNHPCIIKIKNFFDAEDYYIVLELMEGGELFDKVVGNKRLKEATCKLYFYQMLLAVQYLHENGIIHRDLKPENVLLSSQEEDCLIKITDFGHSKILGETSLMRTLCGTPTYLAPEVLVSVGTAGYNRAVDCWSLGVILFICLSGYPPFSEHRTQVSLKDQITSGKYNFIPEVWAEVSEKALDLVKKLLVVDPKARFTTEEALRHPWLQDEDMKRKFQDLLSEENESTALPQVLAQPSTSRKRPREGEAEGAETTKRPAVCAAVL

| SMILES | ΔTm |
| --- | --- |
| COc1cccc(-c2cc(=O)c3ccccc3o2)c1N | -0.5 °C |
| CC(C)n1cnc2/c(=N/c3cccc(Cl)c3)nc(NCCO)[nH]c21 | 1.7 °C |
| COc1ccc2c(c[n+](C)c3c4cc5c(cc4ccc23)OCO5)c1OC [CHELERYTHRINE CHLORIDE] | -3.9 °C |
